Patent US11311599B2, “β-1,3-glucan-peptide complex: compositions and methods” (priority 2018, dated 2022)
No end group written: not given here.

What was measured:
NADPH oxidase [1] = assay: NADPH oxidase activity in LPS-stimulated RAW2647 cells (lucigenin-ECL superoxide); type: cell-based, mouse; details: RAW2647 cells stimulated with LPS; treated at 1, 5 or 10 μg/mL; FIG. 2
Description: A mouse macrophage cell line, which is RAW2647 (ATCCTIB-71; American Type Culture Collection) cells, was cultured using DMEM (Invitrogen) containing 10% fetal bovine serum (FBS; Invitrogen), sodium pyruvate, non-essential amino acids, penicillin G (100 IU/ml) and streptomycin (100 μg/ml).
Whether reactive oxygen species (ROS) production is inhibited when RAW2647 cells were treated with each of SPG-SH1, SPG-SH2 or SPG-SH3 was determined. Particularly. NADPH oxidase (NOX) activity and a mitochondrial ROS level were confirmed.
Particularly, after the RAW2647 cells were stimulated with LPS, SPG-SH1, SPG-SH2 or SPG-SH3 was treated at a concentration of 1, 5 or 10 μg/mL, respectively. The NADPH oxidase activity was confirmed by measuring the production of a superoxide in the RAW2647 cells by a lucigenin (bis-N-methylacridinium nitrate)-ECL method. The production of mitochondrial ROS was determined by staining the RAW2647 cells with 5 μM of MitoSOX for 30 minutes and then measuring mean fluorescence intensity (MFI) by FACS analysis.

IL-1β = IL-1β in peripheral blood of CLP mice (ELISA); type: in vivo, mouse; details: 20 hours after treatment, FIG. 5
Description: (§1) Sepsis mouse models induced by cecal ligation and puncture (CLP) were prepared using 6-week-old C57BL/6 female mice (Samtako, Korea). All animal-related procedures were approved by the Institutional Animal Care and Use Committee of Hanyang University. The CLP mice were intraperitoneally administered three times (at 3, 6 and 12 hours) with an administered substance shown in Table 1. SPG-SC is a peptide complex having a sequence in which SPG-SH3 sequences were randomly mixed, and as the antibiotic, a combination of gentamycin and cephalosporin was used.
(§2) Whether a pro-inflammatory cytokine was inhibited when CLP mice were treated with a combination of SPG-SH3 and an antibiotic was determined.
(§3) Specifically, 20 hours after CLP mice were treated with the same administered substances as in Example <1-1>, the peripheral blood was obtained. The concentrations of TNF-α, IL-6, IL-1β and IL-18 in the blood were measured using an ELISA kit (BD Biosciences).

NADPH oxidase [2] = assay: NADPH oxidase activity in spleen of CLP mice; type: in vivo; details: spleen of CLP mouse; intraperitoneal at 3, 6 and 12 hours, doses of Table 1; FIG. 3
Description: (§4) The pharmaceutical composition of the present invention was intraperitoneally administered into a CLP mouse to confirm an antiinflammatory effect thereof. Specifically, the CLP mouse was anesthetized by administering pentothal sodium (50 mg/kg) intraperitoneally, and then its abdomen was dissected to expose the cecum. The cecum was ligated below the ileocecal valve, punctured twice with a 22-gauge needle, and then the abdomen was closed.
as §1
(§5) Particularly, CLP mice (n=5) treated with the same administered substances as in Example <1-1> were prepared. […] Alternatively, the spleen of the CLP mouse was obtained and fractionated, a 5 μM reagent in a mitochondrial ROS activity assay kit (CA-R933) was treated for 60 minutes, and Ex/Em was measured at 490/525 nm. […]

IL-18 = IL-18 in peripheral blood of CLP mice (ELISA); type: in vivo, mouse; details: 20 hours after treatment, FIG. 5
Description: as §1, §2, §3

IL-6 = IL-6 in peripheral blood of CLP mice (ELISA); type: in vivo, mouse; details: 20 hours after treatment, FIG. 5
Description: as §1, §2, §3

CLP mice [3] = assay: Total ROS in spleen of CLP mice; type: in vivo; details: spleen of CLP mouse; intraperitoneal at 3, 6 and 12 hours, doses of Table 1; FIG. 3
Description: as §4, §1, §5

TNF-α = TNF-α in peripheral blood of CLP mice (ELISA); type: in vivo, mouse; details: 20 hours after treatment, FIG. 5
Description: as §1, §2, §3

CLP mice [4] = assay: Survival of mice with CLP-induced sepsis; type: in vivo, mouse; details: approximately 60 hours after CLP treatment, doses of Table 1, FIG. 4
Description: as §4, §1
Specifically. CLP mice (n=7, twice; total 14) were treated with the administered substances as in Example <1-1> and monitored for 7 days.

Sequence of NADPH oxidase (O70145 whole entry): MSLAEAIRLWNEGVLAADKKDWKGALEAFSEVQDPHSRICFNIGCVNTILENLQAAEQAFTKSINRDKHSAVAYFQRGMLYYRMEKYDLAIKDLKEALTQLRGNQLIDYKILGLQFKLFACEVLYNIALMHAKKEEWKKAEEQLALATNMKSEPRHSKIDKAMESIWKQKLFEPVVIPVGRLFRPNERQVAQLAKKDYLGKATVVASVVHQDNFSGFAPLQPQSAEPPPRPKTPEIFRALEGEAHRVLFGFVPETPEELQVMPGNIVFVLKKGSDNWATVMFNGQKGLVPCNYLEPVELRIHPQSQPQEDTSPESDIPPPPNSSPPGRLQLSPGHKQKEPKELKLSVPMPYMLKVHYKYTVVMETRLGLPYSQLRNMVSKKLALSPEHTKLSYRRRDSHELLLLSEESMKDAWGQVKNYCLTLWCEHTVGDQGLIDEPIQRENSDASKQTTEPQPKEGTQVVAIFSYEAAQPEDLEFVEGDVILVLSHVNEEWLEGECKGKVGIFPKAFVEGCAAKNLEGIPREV
Sequence of NADPH oxidase (Q09014 whole entry, further chain): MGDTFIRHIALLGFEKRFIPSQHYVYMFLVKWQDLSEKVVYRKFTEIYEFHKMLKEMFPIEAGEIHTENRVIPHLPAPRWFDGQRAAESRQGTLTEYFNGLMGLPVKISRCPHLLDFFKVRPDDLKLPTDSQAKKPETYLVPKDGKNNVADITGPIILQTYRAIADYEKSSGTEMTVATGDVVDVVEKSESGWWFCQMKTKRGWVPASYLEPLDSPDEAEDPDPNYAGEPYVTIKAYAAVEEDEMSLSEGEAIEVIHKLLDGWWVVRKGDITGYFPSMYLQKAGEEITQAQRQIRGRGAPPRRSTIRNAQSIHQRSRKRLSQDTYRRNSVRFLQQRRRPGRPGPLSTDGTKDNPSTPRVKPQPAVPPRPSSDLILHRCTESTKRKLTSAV

Substance | NADPH oxidase activity (NADPH oxidase [1]) | concentration of IL-1β (IL-1β) | NADPH oxidase activity level (NADPH oxidase [2]) | concentration of IL-18 (IL-18) | concentration of IL-6 (IL-6) | total ROS level (CLP mice [3]) | concentration of TNF-α (TNF-α) | survival rate (CLP mice [4])
SH3: SH3 peptide, SEQ ID NO: 4, ALLSFKKGGQTGYIPSNYV, 19 amino acids, from SH3-1 and SH3-2 sequences of c-Src (SH3) | lowest |  |  |  |  |  |  | 
SPG-SH3: β-glucan-peptide complex: schizophyllan (β-1,3-glucan) carboxylated and linked to amine group of SH3 peptide (SEQ ID NO: 4, ALLSFKKGGQTGYIPSNYV) (also: linked via amine group to carboxylated schizophyllan β-glucan) | lowest | significantly reduced | significantly reduced | significantly reduced | significantly reduced | significantly reduced | significantly reduced | approximately 70%
